Test [1] deals with UMR106-06. As to the kind of experiment: Compound was evaluated for the intrinsic activity for accumulation of cyclic AMP in UMR10606 (rat osteosarcoma) cells. The test is classed as functional.
Test [2] deals with OK-1. As to the kind of experiment: Displacement of [125I]-chick PTHrP-(1-36)-NH2 from opossum (OK-1) kidney cells. In kind it is functional.
Test [3] concerns OK-1. As to the kind of experiment: Compound was evaluated for the intrinsic activity for accumulation of cyclic AMP in OK-1 cells. In kind it is functional, opossum.
The subject of test [4] is SAOS-2. As to the kind of experiment: Compound was evaluated for the intrinsic activity for accumulation of cyclic AMP in SaOS-2 (human osteosarcoma) cells. In kind it is functional.
Test [5] has as its system SAOS-2. As to the kind of experiment: Compound was evaluated for the accumulation of cyclic AMP in SaOS-2 (human osteosarcoma) cells. In kind it is functional, cell-based.
Test [6] relates to OK-1. As to the kind of experiment: Compound was evaluated for the accumulation of cyclic AMP in OK-1 cells. In kind it is functional, cell-based, opossum.
In test [7] the test system is UMR106-06. As to the kind of experiment: Compound was evaluated for the accumulation of cyclic AMP in UMR10606 (rat osteosarcoma) cells. In kind it is functional, cell-based.
Test [8] relates to OK-1. As to the kind of experiment: Accumulation of cyclic AMP in OK-1 cells. In kind it is functional, cell-based, opossum.

From ChEMBL document CHEMBL1159136, “Dipeptide mimetics can substitute for the receptor activation domain resulting in highly potent analogues of hPTH(136)” (Bioorg Med Chem Lett, 1996) come the findings set out here.

Square brackets hold non-standard residues; d marks the D form. Peptide text beside a SMILES is read from it. NMeA = CN[C@@H](C)C(=O)O

With `CC[C@H](C)[C@H](NC(=O)[C@H](CCC(=O)O)NC(=O)[C@H](CO)NC(=O)[C@@H](NC(=O)[C@@H](N)CO)C(C)C)C(=O)N[C@@H](CCC(N)=O)C(=O)N[C@@H](CC(C)C)C(=O)N[C@@H](CCSC)C(=O)N[C@@H](Cc1c[nH]cn1)C(=O)N[C@@H](CC(N)=O)C(=O)N[C@@H](CC(C)C)C(=O)NCC(=O)N[C@@H](CCCCN)C(=O)N[C@@H](Cc1c[nH]cn1)C(=O)N[C@@H](CC(C)C)C(=O)N[C@@H](CC(N)=O)C(=O)N[C@@H](CO)C(=O)N[C@@H](CCSC)C(=O)N[C@@H](CCC(=O)O)C(=O)N[C@@H](CCCN=C(N)N)C(=O)N[C@H](C(=O)N[C@@H](CCC(=O)O)C(=O)N[C@@H](Cc1c[nH]c2ccccc12)C(=O)N[C@@H](CC(C)C)C(=O)N[C@@H](CCCN=C(N)N)C(=O)N[C@@H](CCCCN)C(=O)N[C@@H](CCCCN)C(=O)N[C@@H](CC(C)C)C(=O)N[C@@H](CCC(N)=O)C(=O)N[C@@H](CC(=O)O)C(=O)N[C@H](C(=O)N[C@@H](Cc1c[nH]cn1)C(=O)N[C@@H](CC(N)=O)C(=O)N[C@@H](Cc1ccccc1)C(=O)N[C@H](C(=O)N[C@@H](C)C(N)=O)C(C)C)C(C)C)C(C)C`, the figures for the Intrinsic activity in the test with UMR106-06 [1], in the test with OK-1 [3] and with SAOS-2 [4] were 0.98, 1 and 0.96, respectively. In the test on OK-1 [2], this compound yielded a negative logarithm of the KD (pKD) of 8.6. Further, the EC50 in the test with SAOS-2 [5] (Homo sapiens, SAOS-2) was 2.3 nM; in the test on OK-1 [6], 4.2 nM; in the test on UMR106-06 [7] (Rattus norvegicus, UMR106-06), 3.3 nM.
On to `CC[C@H](C)[C@H](NC(=O)[C@H](CCC(=O)O)NC(=O)[C@H](CO)NC(=O)[C@@H](NC(=O)[C@H](C)N)C(C)C)C(=O)N[C@@H](CCC(N)=O)C(=O)N[C@@H](CC(C)C)C(=O)N[C@@H](CCSC)C(=O)N[C@@H](Cc1c[nH]cn1)C(=O)N[C@@H](CC(N)=O)C(=O)N[C@@H](CC(C)C)C(=O)NCC(=O)N[C@@H](CCCCN)C(=O)N[C@@H](Cc1c[nH]cn1)C(=O)N[C@@H](CC(C)C)C(=O)N[C@@H](CC(N)=O)C(=O)N[C@@H](CO)C(=O)N[C@@H](CCSC)C(=O)N[C@@H](CCC(=O)O)C(=O)N[C@@H](CCCN=C(N)N)C(=O)N[C@H](C(=O)N[C@@H](CCC(=O)O)C(=O)N[C@@H](Cc1c[nH]c2ccccc12)C(=O)N[C@@H](CC(C)C)C(=O)N[C@@H](CCCN=C(N)N)C(=O)N[C@@H](CCCCN)C(=O)N[C@@H](CCCCN)C(=O)N[C@@H](CC(C)C)C(=O)N[C@@H](CCC(N)=O)C(=O)N[C@@H](CC(=O)O)C(=O)N[C@H](C(=O)N[C@@H](Cc1c[nH]cn1)C(=O)N[C@@H](CC(N)=O)C(=O)N[C@@H](Cc1ccccc1)C(=O)N[C@H](C(=O)N[C@@H](C)C(N)=O)C(C)C)C(C)C)C(C)C` (stereo in doubt; form 1), for which the results for the Intrinsic activity with UMR106-06 [1], with OK-1 [3] and in the test with SAOS-2 [4] were 1, 1 and 0.95, respectively. For the same compound, in the test on OK-1 [2], the pKD is 8.4. For the same compound, the results for the EC50 in the test on OK-1 [8] (ok-1), in the test with SAOS-2 [5] (saos-2) and with UMR106-06 [7] (umr106-06) were 5.9 nM, 3 nM and 3.3 nM, respectively.
As to `CC[C@H](C)[C@H](NC(=O)[C@H](CCC(=O)O)NC(=O)[C@H](CO)NC(=O)[C@@H](NC(=O)[C@H](C)NC)C(C)C)C(=O)N[C@@H](CCC(N)=O)C(=O)N[C@@H](CC(C)C)C(=O)N[C@@H](CCSC)C(=O)N[C@@H](Cc1c[nH]cn1)C(=O)N[C@@H](CC(N)=O)C(=O)N[C@@H](CC(C)C)C(=O)NCC(=O)N[C@@H](CCCCN)C(=O)N[C@@H](Cc1c[nH]cn1)C(=O)N[C@@H](CC(C)C)C(=O)N[C@@H](CC(N)=O)C(=O)N[C@@H](CO)C(=O)N[C@@H](CCSC)C(=O)N[C@@H](CCC(=O)O)C(=O)N[C@@H](CCCN=C(N)N)C(=O)N[C@H](C(=O)N[C@@H](CCC(=O)O)C(=O)N[C@@H](Cc1c[nH]c2ccccc12)C(=O)N[C@@H](CC(C)C)C(=O)N[C@@H](CCCN=C(N)N)C(=O)N[C@@H](CCCCN)C(=O)N[C@@H](CCCCN)C(=O)N[C@@H](CC(C)C)C(=O)N[C@@H](CCC(N)=O)C(=O)N[C@@H](CC(=O)O)C(=O)N[C@H](C(=O)N[C@@H](Cc1c[nH]cn1)C(=O)N[C@@H](CC(N)=O)C(=O)N[C@@H](Cc1ccccc1)C(=O)N[C@H](C(=O)N[C@@H](C)C(N)=O)C(C)C)C(C)C)C(C)C` (H-[NMeA]VSEIQLMHNLGKHLNSMERVEWLRKKLQDVHNFVA-NH2), the Intrinsic activity in the test on UMR106-06 [1] is 1; in the test with OK-1 [3], 0.9; in the test on SAOS-2 [4], 1. Further, the negative-log KD (pKD) with OK-1 [2] is recorded as 8.5. The EC50 with OK-1 [8] (opossum, OK-1) amounted to 7.4 nM; with SAOS-2 [5] (Homo sapiens, SAOS-2), 1.6 nM; in the test on UMR106-06 [7] (Rattus norvegicus, UMR106-06), 2.6 nM.
